Results reported in patent US9351492B2, “Anti-biofilm compositions and methods for using” (priority 2010, dated 2016).

Assays:
Staphylococcus aureus [1] = assay: MIC, CLSI broth microdilution (growth inhibition); type: cell-based; conditions: doses 25-2000 μM
Method: (§1) For all assays, overnight cultures grown in the appropriate medium were used to inoculate fresh medium at an initial cell density of 5×10^5 colony-forming units (CFU) per ml. Cell density was confirmed by colony count of aliquots taken immediately following inoculation of the test strain.
Briefly, test strains were inoculated into 0.1 ml CAMHB containing 220D-F2 at concentrations ranging from 0.138-4 mg/ml (0.138-4% excipient in solution). For the MIC, optical density (OD600) was assessed immediately after inoculation and again after 18 hrs using a Biotek Synergy II microplate reader. Corrections for extract color, which can alter the OD output, were done as previously described (Quave et al., 2008, supra). […] The MBC was determined by taking colony counts of aliquots taken from each well after 24 hrs and it was defined as the lowest concentration at which the initial density of viable cells was reduced by ≧90% (for MBC90) or ≧50% (for MBC50) by comparison to the untreated control. […] For these experiments, 10 ml cultures were grown at 37° C. in 25 ml Erlenmeyer flasks in BM with constant shaking (200 rpm).
(§2) Ten commercially available phytochemical constituents reported in the literature to have been isolated from R. ulmifolius (Table 4) were purchased and examined for their prophylactic efficacy in the prevention of biofilm formation using a static microtiter plate biofilm assay. Ferulic acid, kaempferol, ursolic acid, quercetin dehydrate, caffeic acid, ellagic acid, and oleanolic acid were purchased from MP BioMedicals (Solon, Ohio, USA); quercetin-3-O-glucuronide and tiliroside from Chromadex (Irvine, Calif., USA); and gallic acid from Acros Organics (NJ, USA). Compounds were tested for growth and biofilm inhibitory activity at doses ranging from 25-2000 μM. To determine the minimum inhibitory concentration (MIC) for each fraction, strains of S. aureus were grown in 37° C. in cation adjusted Muller-Hinton broth (CAMHB). MIC and MBC were determined following Clinical and Laboratory Standards Institute […] broth microdilution guidelines. Briefly, strains were inoculated into 0.1 ml CAMBH containing varying concentrations of the compound. For MIC, optical density (OD600) was assessed immediately after inoculation and again after 18 hours using Biotek Synergy II microplate reader. The MIC was defined as the lowest concentration that inhibited growth to a level greater than or equal to 90% (for MIC90) or greater than or equal to 50% (for MIC50) by comparison to untreated cultures.

Staphylococcus aureus [2] = type: cell-based; conditions: for Biofilm Formation MBIC50 / Biofilm Formation MBIC90: doses 25-2000 μM
Method: as §1
Biofilm formation was assessed using a microtiter plate assay as previously described (Beenken et al., 2003, Infection and Immunity 71:4206-11) except that 2-fold serial dilutions (0.0125-0.4 mg/ml, 0.0125-0.4% excipient in solution) of 220D-F2 were included in the BM. Controls for each experiment were the wild-type strain and its isogenic sarA mutant assayed in the absence of 220D-F2. The minimum biofilm inhibiting concentration (MBIC) was defined as the lowest concentration at which 220D-F2 inhibited biofilm formation to a level ≧90% (for MBIC90) or ≧50% (for MBIC50) than that observed with the parent strain in the absence of 220D-F2. […]
as §2

Staphylococcus aureus [3] = conditions: Durig et al. 2010; cited from earlier work
UAMS-1 = assay: in vitro catheter assay, established biofilm; type: cell-based, Staphylococcus aureus; conditions: catheters colonized without extract; 220D-F2 0.2 mg/ml, daptomycin 10 μg/ml (10× breakpoint MIC)
Method: UAMS-1 was grown on 1 cm catheter segments as previously described (Weiss et al., 2009b, Antimicrobial Agents and Chemotherapy 53:2475-2482). After 24 hrs, the BM medium was replaced with BM medium containing 220D-F2 (0.2 mg/ml) and/or daptomycin. […] The medium was replaced in its entirety at 24 hr intervals for 7 days. The therapeutic response of UAMS-1 to daptomycin in the presence of 220D-F2 was assessed by comparison to UAMS-929 grown in the absence of 220D-F2 but exposed to daptomycin as previously described (Weiss et al., 2009a, 2009b, supra). […] After each 24 h interval, catheters were removed from each treatment group and rinsed with PBS before removing bacteria for plate counts as previously described (Weiss et al., 2009a, 2009b, supra).
This assay was also used to assess the prophylactic activity of 220D-F2. In this case, the test compounds were added to the BM at the time of inoculation rather than after a 24 hr colonization period. After 24 hr incubation in the presence of 220D-F2, the catheters were processed for plate counts as described above.
Catheters were colonized with UAMS-1 in the absence of any extract. […] The antibiotics tested were daptomycin, clindamycin, vancomycin, and oxacillin.

Compound	Growth MBIC50 (Staphylococcus aureus [1]) [µM]	Growth MBIC90 (Staphylococcus aureus [1]) [µM]	Biofilm Formation MBIC50 (Staphylococcus aureus [2]) [µM]	Biofilm Formation MBIC90 (Staphylococcus aureus [2]) [µM]	biofilm inhibition of S. aureus, previous studies (Staphylococcus aureus [3])	anti-biofilm activity at doses well below any growth inhibitory effects (Staphylococcus aureus [2]; among 10 phytochemicals)	average colony counts at day 7 (UAMS-1)
O=c1c(O)c(-c2ccc(O)c(O)c2)oc2cc(O)cc(O)c12 [Quercetin Dihydrate]	1720 ± 20	1903 ± 29	543 ± 21	1987 ± 21			
O=c1oc2c(O)c(O)cc3c(=O)oc4c(O)c(O)cc1c4c23 [Ellagic Acid]	>2000	>2000	38 ± 13	763 ± 32	not an effective biofilm inhibitor	meaningful anti-biofilm activity	
O=C(/C=C/c1ccc(O)cc1)OC[C@H]1O[C@@H](Oc2c(-c3ccc(O)cc3)oc3cc(O)cc(O)c3c2=O)[C@H](O)[C@@H](O)[C@@H]1O [Tiliroside]	>2000	>2000	>2000	>2000			
O=c1c(O)c(-c2ccc(O)cc2)oc2cc(O)cc(O)c12 [Kaempferol]	1640 ± 10	1787 ± 42	560 ± 53	773 ± 6			
O=C(O)/C=C/c1ccc(O)c(O)c1 [Caffeic Acid]	>2000	>2000	>2000	>2000			
O=C(O)[C@H]1OC(Oc2c(-c3ccc(O)c(O)c3)oc3cc(O)cc(O)c3c2=O)[C@H](O)[C@@H](O)[C@@H]1O (stereo partly drawn) [Quercetin-3-O-glucuronide]	>2000	>2000	>2000	>2000			
Oleanolic Acid	1077 ± 15	1613 ± 31	190 ± 26	940 ± 35			
O=C(O)c1cc(O)c(O)c(O)c1 [Gallic Acid]	>2000	>2000	713 ± 32	2010 ± 10			
Ursolic Acid	640 ± 46	763 ± 32	207 ± 32	397 ± 6			
CCCCCCCCCC(=O)N[C@@H](Cc1c[nH]c2ccccc12)C(=O)N[C@H](CC(N)=O)C(=O)N[C@@H](CC(=O)O)C(=O)N[C@@H]1C(=O)NCC(=O)N[C@@H](CCCN)C(=O)N[C@@H](CC(=O)O)C(=O)N[C@H](C)C(=O)N[C@@H](CC(=O)O)C(=O)NCC(=O)N[C@H](CO)C(=O)N[C@@H]([C@H](C)CC(=O)O)C(=O)N[C@@H](CC(=O)c2ccccc2N)C(=O)O[C@@H]1C [daptomycin]							1.01×10^7 CFU/catheter
